Source: ChEMBL document CHEMBL1137063, “The impact of spacer structure on 5-HT7 and 5-HT1A receptor affinity in the group of long-chain arylpiperazine ligands” (Bioorg Med Chem Lett, 2004)

What was measured:
[1] = biological target: 5-hydroxytryptamine receptor 7 (Rattus norvegicus, UniProt P32305); assay: In vitro ability to displace the radioligand [3H]5-CT from binding to rat 5-hydroxytryptamine 7 receptor
[2] = biological target: T1, 5-hydroxytryptamine receptor 1A (Rattus norvegicus, UniProt P19327); assay: In vitro ability to displace the radioligand [3H]-OH-DPAT from binding to rat 5-hydroxytryptamine 1A receptor
T1 sequence (P19327 whole entry): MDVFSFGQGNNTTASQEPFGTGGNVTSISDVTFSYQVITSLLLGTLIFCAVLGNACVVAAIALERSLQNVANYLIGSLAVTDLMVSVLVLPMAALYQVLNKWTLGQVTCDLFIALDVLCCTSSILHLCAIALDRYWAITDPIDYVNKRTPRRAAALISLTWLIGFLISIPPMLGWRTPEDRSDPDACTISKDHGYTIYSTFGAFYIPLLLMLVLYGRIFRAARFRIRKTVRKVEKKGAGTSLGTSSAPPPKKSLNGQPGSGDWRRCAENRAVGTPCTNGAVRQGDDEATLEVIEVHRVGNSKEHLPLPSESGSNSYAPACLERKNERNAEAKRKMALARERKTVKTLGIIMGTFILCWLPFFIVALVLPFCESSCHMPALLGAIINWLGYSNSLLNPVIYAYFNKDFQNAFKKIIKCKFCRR

Sequence of 5-hydroxytryptamine receptor 7 (P32305 whole entry): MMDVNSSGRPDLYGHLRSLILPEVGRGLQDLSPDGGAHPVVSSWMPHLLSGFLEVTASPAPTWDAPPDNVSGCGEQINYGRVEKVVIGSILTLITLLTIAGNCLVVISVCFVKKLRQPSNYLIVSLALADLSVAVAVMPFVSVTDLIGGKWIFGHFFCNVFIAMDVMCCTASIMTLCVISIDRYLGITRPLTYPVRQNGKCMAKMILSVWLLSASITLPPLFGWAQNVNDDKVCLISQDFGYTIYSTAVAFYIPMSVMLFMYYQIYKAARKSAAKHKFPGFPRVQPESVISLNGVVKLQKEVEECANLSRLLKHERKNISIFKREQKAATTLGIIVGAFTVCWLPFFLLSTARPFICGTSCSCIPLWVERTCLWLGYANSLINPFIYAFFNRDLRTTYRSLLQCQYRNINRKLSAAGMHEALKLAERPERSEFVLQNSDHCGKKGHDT

Row | Ki [1] | Ki [2] | Compound
1 | 367 nM | 405 nM | COc1ccccc1N1CCN(Cc2ccccc2CN2C(=O)c3ccccc3C2=O)CC1
2 | 353 nM | 77 nM | COc1ccccc1N1CCN(C/C=C\CN2C(=O)c3ccccc3C2=O)CC1
3 | 910 nM | 415 nM | COc1ccccc1N1CCN(Cc2ccccc2CN2C(=O)CCC2=O)CC1
4 | 36 nM | 5 nM | COc1ccccc1N1CCN(C/C=C/CN2C(=O)c3ccccc3C2=O)CC1
5 | 63 nM | 29 nM | COc1ccccc1N1CCN(C/C=C/CN2C(=O)CCC2=O)CC1
6 | 11500 nM | 15.2 nM | COc1ccccc1N1CCN([C@H]2CC[C@H](N3C(=O)CCC3=O)CC2)CC1
7 | 2040 nM | 8 nM | COc1ccccc1N1CCN([C@H]2CC[C@H](N3C(=O)c4ccccc4C3=O)CC2)CC1
8 | 790 nM | 157 nM | COc1ccccc1N1CCN(C/C=C\CN2C(=O)CCC2=O)CC1
